Measurements taken from patent US20260216174A1, “TREATMENT OF ER+ BREAST CANCER COMPRISING HOMOLOGOUS RECOMBINATION DEFICIENCY USING PARG INHIBITOR” (IDEAYA BIOSCIENCES, INC., priority 2023, published 2026).

What was measured:
Type in all cases: cell-based
BT-20 = test: Cellular antiproliferative response, Assay 1 (nuclear counts); settings: Homo sapiens; BT-20, Wild Type, Assay 1, 5 population doublings; read-out: Log10 (IC50) (converted)
Protocol: (§1) Compound A was tested in a cell line panel. Cell lines were obtained from several different sources such as the American Type Culture Collection, Korean Cell Line Bank and Japanese Collection of Research Bioresources Cell Bank and cultured in the media as recommended by the source cell banks. All cell lines were grown at 37° C. at 5% CO2 and were passaged once or twice weekly with 0.25% Trypsin-EDTA (Fisher Scientific #25200056) and re-plated in 75 cm^2 culture flasks (Corning #3814).
(§2) The cell lines were plated in 96 well plates (Corning #3904) at density of 1000 cells/well. DMSO dissolved Compound A was then added using the TECAN liquid dispenser to generate a 9-point dose curve with a 3-fold dilution and 10 μM starting, top concentration. After 5 population doublings, the cell lines were treated with 5 μM of Vybrant DyeCycle Green (Life Technologies #V35004), incubated for 60 minutes and imaged using the Incucyte® S3 system to determine the nuclear counts. For all cell lines, the nuclear counts were normalized to the DMSO treated wells and the IC50 was determined using the standard four parametric dose response equation in GraphPad Prism Software.

BT-549 = test: as above; settings: Homo sapiens; BT-549, Wild Type, Assay 1, 5 population doublings; read-out: Log10 (IC50) (converted)
Protocol: as §1, §2

CAMA-1 = test: as above; settings: Homo sapiens; CAMA-1, Wild Type, Assay 1, 5 population doublings; read-out: Log10 (IC50) (converted)
Protocol: as §1, §2

Hs 578T = test: as above; settings: Homo sapiens, Wild Type, Assay 1, 5 population doublings, read-out: Log10 (IC50) (converted)
Protocol: as §1, §2

KPL-1 = test: as above; settings: KPL-1, Wild Type, Assay 1, 5 population doublings; read-out: Log10 (IC50) (converted)
Protocol: as §1, §2

MCF7 = test: as above; settings: Homo sapiens; MCF7, Wild Type, Assay 1, 5 population doublings; read-out: Log10 (IC50) (converted)
Protocol: as §1, §2

MDA-MB-231 = test: as above; settings: Homo sapiens; MDA-MB-231, Wild Type, Assay 1, 5 population doublings; read-out: Log10 (IC50) (converted)
Protocol: as §1, §2

MDA-MB-415 = test: as above; settings: Homo sapiens; MDA-MB-415, Wild Type, Assay 1, 5 population doublings; read-out: Log10 (IC50) (converted)
Protocol: as §1, §2

MDA-MB-453 = test: as above; settings: Homo sapiens; MDA-MB-453, Wild Type, Assay 1, 5 population doublings; read-out: Log10 (IC50) (converted)
Protocol: as §1, §2

SK-BR-3 = test: as above; settings: Homo sapiens; SK-BR-3, Wild Type, Assay 1, 5 population doublings; read-out: Log10 (IC50) (converted)
Protocol: as §1, §2

T-47D = test: as above; settings: Homo sapiens, T47D, Wild Type, Assay 1, 5 population doublings, read-out: Log10 (IC50) (converted)
Protocol: as §1, §2

EFM-19 = test: Cellular antiproliferative response, Assay 2 (nuclear dye intensity); settings: Homo sapiens, 240 h; EFM-19, HR mutant ATM, Assay 2, 10-day incubation; read-out: Log10 (IC50) (converted)
Protocol: (§3) Compound A was tested in a cell line panel. Cell lines were grown in RPMI 1640, 10% FBS, 2 mM L-alanyl-L-glutamine, 1 mM Na pyruvate, or a special medium. Cells were seeded into 384-well plates and incubated in a humidified atmosphere of 5% CO2 at 37° C. The following day, Compound A was added by serial dilution in half-log steps from the highest test concentration of 30 μM and assayed over ten concentrations. A time zero untreated cell plate was also generated. At seven days post-seeding, the growth media were replaced, and the plates were re-dosed with the test compound. After a 10-day incubation period, cells were fixed and stained with a fluorescent nuclear dye. Automated fluorescence microscopy was carried out using a Molecular Devices ImageXpress Micro XL high-content imager, and images were collected with a 4× objective. 16-bit TIFF images were acquired and analyzed with MetaXpress 5.1.0.41 software.
(§4) Cell proliferation effects of Compound A was measured using the fluorescent intensity of the incorporated nuclear dye as a percent of the control (POC), where POC=(Ix/I0)×100. Ix=nuclear intensity at concentration x and I0=average nuclear intensity of the untreated vehicle wells. Cellular IC50 was calculated using nonlinear regression to a sigmoidal single-site dose response model. Curve fitting, calculations, and report generation was performed using a custom data reduction engine and MathIQ based software (AIM).

HCC1428 = test: as above; settings: Homo sapiens, 240 h; HCC1428, HR mutant BRCA2, Assay 2, 10-day incubation; read-out: Log10 (IC50) (converted)
Protocol: as §3, §4

C[C@H]1CN(c2cc(S(=O)(=O)NC3(C)CC3)cc3c2cnn3-c2nnc(C(F)F)s2)C[C@H](C)N1 [Compound A, 1-(5-(difluoromethyl)-1,3,4-thiadiazol-2-yl)-4-((3S,5S)-3,5-dimethylpiperazin-1-yl)-N-(1-methylcyclopropyl)-1H-indazole-6-sulfonamide]
IC50 (BT-20): 2.41 µM | IC50 (BT-549): 0.983 µM | IC50 (CAMA-1): 0.844 µM | IC50 (Hs 578T): 3 µM | IC50 (KPL-1): 0.431 µM | IC50 (MCF7): 2.38 µM | IC50 (MDA-MB-231): 0.85 µM | IC50 (MDA-MB-415): 2.83 µM | IC50 (MDA-MB-453): 2.02 µM | IC50 (SK-BR-3): 0.131 µM | IC50 (T-47D): 3.09 µM | IC50 (EFM-19): 0.689 µM | IC50 (HCC1428): 0.01 µM
